Test results from patent US20070049564A1 (Wyeth, priority 2005, published 2007).
≈ marks a conversion by molar mass, not a printed value. Like-named read-outs stand apart in the source and are kept apart here.

Key:
E. faecalis GC 2265 = assay: MIC, broth microdilution; conditions: Enterococcus faecalis
Staph. = assay: Range of MIC for Staph. strains, including MRSA; conditions: Staphylococcus aureus
S. pneumoniae* GC 4465 = assay: MIC, broth microdilution; conditions: Streptococcus pneumoniae
S. aureus GC 1131 = assay: MIC, broth microdilution; conditions: Staphylococcus aureus
E. faecalis GC 2267 = assay: MIC, broth microdilution; conditions: Enterococcus faecalis
E. coli GC 2232 = assay: MIC, broth microdilution; conditions: Escherichia coli
E. coli = assay: Range of MIC for E. coli strains; conditions: Escherichia coli
S. epidermidis GC 4935 = assay: MIC, broth microdilution; conditions: Staphylococcus epidermidis
S. pneumoniae+ GC 4465 = assay: MIC, broth microdilution; conditions: Streptococcus pneumoniae
E. faecium GC 2243 = assay: MIC, broth microdilution; conditions: Enterococcus faecium
E. coli GC 2231 = assay: MIC, broth microdilution; conditions: Escherichia coli
S. aureus GC 4536 = assay: MIC, broth microdilution; conditions: Staphylococcus aureus
c. albicans GC 3066 = assay: MIC, broth microdilution
P. aeruginosa GC 2214 = assay: MIC, broth microdilution; conditions: Pseudomonas aeruginosa
E. coli GC 2236 = assay: MIC, broth microdilution; conditions: Escherichia coli
E. faecalis GC 2242 = assay: MIC, broth microdilution; conditions: Enterococcus faecalis
E. coli GC 2272 = assay: MIC, broth microdilution; conditions: Escherichia coli
Procedure: Antimicrobial susceptibility testing. The in vitro activities of the antibiotics are determined by the broth microdilution method as recommended by the National Committee for Clinical Laboratory Standards (NCCLS) (1). Mueller-Hinton II broth (MHBII)(BBL Cockeysville, Md.) is the medium employed in the testing procedures. Microtiter plates containing serial dilutions of each antimicrobial agent are inoculated with each organism to yield the appropriate density (10^5 CFU/ml) in a 100 μl final volume. The plates are incubated for 18-22 hours at 35° C. in ambient air.
Representative compounds were first incubated in mouse serum for an hour prior to the in vitro testing against a panel of selected gram-positive and gram-negative bacteria strains. All compounds were also pre-incubated in water for an hour prior to testing as control. Representative compounds of Formula I were incubated in human serum prior to MIC determination.

Staph. aureus Smith = assay: In vivo activity (oral, iv; ED50) against Staph. aureus Smith in mice
Procedure: Representative examples of compounds of Formula I were tested for the oral efficacy using S. aureus Smith in mice.

E. faecalis GC 4555 = assay: MIC, broth microdilution; conditions: Enterococcus faecalis
S. aureus GC 2216 = assay: MIC, broth microdilution; conditions: Staphylococcus aureus
[1] = read-out: MINIMAL INHIBITORY CONCENTRATION MIC, Human Serum
[2] = read-out: MINIMAL INHIBITORY CONCENTRATION MIC, Mouse Serum
[3] = read-out: MINIMAL INHIBITORY CONCENTRATION MIC, Water

For CN(C)c1cc(NC(=O)CN(C(=O)OCOC(=O)C2CCCCC2)C(C)(C)C)c(O)c2c1C[C@H]1C[C@H]3[C@H](N(C)C)C(O)=C(C(N)=O)C(=O)[C@@]3(O)C(O)=C1C2=O [Example 50, ({[(2-{[(5aR,6aS,7S,10aS)-9-(aminocarbonyl)-4,7-bis(dimethylamino)-1,8,10a,11-tetrahydroxy-10,12-dioxo-5,5a,6,6a,7,10,10a,12-octahydrotetracen-2-yl]amino}-2-oxoethyl)(tert-butyl)amino]carbonyl}oxy)methyl cyclohexanecarboxylate], the MIC (E. faecalis GC 2265; GC2265, read-out: MINIMAL INHIBITORY CONCENTRATION MIC, Human Serum) was 2 µg/mL (≈ 2.6 µM), the MIC (E. faecalis GC 2265; GC2265, read-out: MINIMAL INHIBITORY CONCENTRATION MIC, Mouse Serum) was 1 µg/mL (≈ 1.3 µM) and the MIC (E. faecalis GC 2265; GC2265, read-out: MINIMAL INHIBITORY CONCENTRATION MIC, Water) was 4 µg/mL (≈ 5.2 µM). It also gave an MIC (Staph.; MRSA, read-out: Range of MIC, Staph (Mouse Serum)) of 0.25 to 2 µg/mL (≈ 0.325 to 2.6 µM), an MIC (Staph.; MRSA, read-out: Range of MIC, Staph (Water)) of 0.25 to 4 µg/mL (≈ 0.325 to 5.2 µM) and an MIC (Staph.; read-out: Minimum inhibitory concentration (MIC), Staph (Human Serum)) of 0.25 to 2 µg/mL (≈ 0.325 to 2.6 µM). For the same compound, the MIC (Staph.; read-out: Minimum inhibitory concentration (MIC), Staph (Water)) was 0.25 to 4 µg/mL (≈ 0.325 to 5.2 µM), the MIC (S. pneumoniae* GC 4465; [1]) was under 0.06 µg/mL and the MIC (S. pneumoniae* GC 4465; [2]) was under 0.06 µg/mL. For the same compound, the MIC (S. pneumoniae* GC 4465; [3]) was under 0.06 µg/mL, the MIC (S. aureus GC 1131; GC1131, read-out: MINIMAL INHIBITORY CONCENTRATION MIC, Human Serum) was 0.5 µg/mL (≈ 0.649 µM) and the MIC (S. aureus GC 1131; GC1131, read-out: MINIMAL INHIBITORY CONCENTRATION MIC, Mouse Serum) was 0.5 µg/mL (≈ 0.649 µM). The MIC (S. aureus GC 1131; GC1131, read-out: MINIMAL INHIBITORY CONCENTRATION MIC, Water) was 1 µg/mL (≈ 1.3 µM), the MIC (E. faecalis GC 2267; GC2267, read-out: MINIMAL INHIBITORY CONCENTRATION MIC, Human Serum) was 2 µg/mL (≈ 2.6 µM) and the MIC (E. faecalis GC 2267; GC2267, read-out: MINIMAL INHIBITORY CONCENTRATION MIC, Mouse Serum) was 1 µg/mL (≈ 1.3 µM). The MIC (E. faecalis GC 2267; GC2267, read-out: MINIMAL INHIBITORY CONCENTRATION MIC, Water) was 4 µg/mL (≈ 5.2 µM), the MIC (E. coli GC 2232; GC2232, read-out: MINIMAL INHIBITORY CONCENTRATION MIC, Human Serum) was 8 µg/mL (≈ 10.4 µM) and the MIC (E. coli GC 2232; GC2232, read-out: MINIMAL INHIBITORY CONCENTRATION MIC, Mouse Serum) was 1 µg/mL (≈ 1.3 µM). For the same compound, the MIC (E. coli GC 2232; GC2232, read-out: MINIMAL INHIBITORY CONCENTRATION MIC, Water) was 32 µg/mL (≈ 41.6 µM), the MIC (E. coli; 20 h, read-out: Range of MIC, E. coli (Mouse Serum)) was 1 to 2 µg/mL (≈ 1.3 to 2.6 µM) and the MIC (E. coli; read-out: Minimum inhibitory concentration (MIC), E. coli (Human Serum)) was 4 to 16 µg/mL (≈ 5.2 to 20.8 µM). For the same compound, the MIC (E. coli; read-out: Minimum inhibitory concentration (MIC), E. coli (water)) was 32 to 64 µg/mL (≈ 41.6 to 83.1 µM), the MIC (E. coli; read-out: Range of MIC, E. coli (Water)) was 32 to 64 µg/mL (≈ 41.6 to 83.1 µM) and the MIC (S. epidermidis GC 4935; GC4935, read-out: MINIMAL INHIBITORY CONCENTRATION MIC, Human Serum) was 2 µg/mL (≈ 2.6 µM). It also gave an MIC (S. epidermidis GC 4935; GC4935, read-out: MINIMAL INHIBITORY CONCENTRATION MIC, Mouse Serum) of 2 µg/mL (≈ 2.6 µM), an MIC (S. epidermidis GC 4935; GC4935, read-out: MINIMAL INHIBITORY CONCENTRATION MIC, Water) of 4 µg/mL (≈ 5.2 µM) and an MIC (S. pneumoniae+ GC 4465; [1]) of 0.5 µg/mL (≈ 0.649 µM). For the same compound, the MIC (S. pneumoniae+ GC 4465; [2]) was 0.5 µg/mL (≈ 0.649 µM), the MIC (S. pneumoniae+ GC 4465; [3]) was 0.5 µg/mL (≈ 0.649 µM) and the MIC (E. faecium GC 2243; GC2243, read-out: MINIMAL INHIBITORY CONCENTRATION MIC, Human Serum) was 0.25 µg/mL (≈ 0.325 µM). The MIC (E. faecium GC 2243; GC2243, read-out: MINIMAL INHIBITORY CONCENTRATION MIC, Mouse Serum) was 0.25 µg/mL (≈ 0.325 µM), the MIC (E. faecium GC 2243; GC2243, read-out: MINIMAL INHIBITORY CONCENTRATION MIC, Water) was 0.5 µg/mL (≈ 0.649 µM) and the MIC (E. coli GC 2231; GC2231, read-out: MINIMAL INHIBITORY CONCENTRATION MIC, Human Serum) was 8 µg/mL (≈ 10.4 µM). It also gave an MIC (E. coli GC 2231; GC2231, read-out: MINIMAL INHIBITORY CONCENTRATION MIC, Mouse Serum) of 1 µg/mL (≈ 1.3 µM), an MIC (E. coli GC 2231; GC2231, read-out: MINIMAL INHIBITORY CONCENTRATION MIC, Water) of 64 µg/mL (≈ 83.1 µM) and an MIC (S. aureus GC 4536; GC4536, read-out: MINIMAL INHIBITORY CONCENTRATION MIC, Human Serum) of 0.25 µg/mL (≈ 0.325 µM). The MIC (S. aureus GC 4536; GC4536, read-out: MINIMAL INHIBITORY CONCENTRATION MIC, Mouse Serum) was 0.25 µg/mL (≈ 0.325 µM), the MIC (S. aureus GC 4536; GC4536, read-out: MINIMAL INHIBITORY CONCENTRATION MIC, Water) was 0.5 µg/mL (≈ 0.649 µM) and the MIC (c. albicans GC 3066; Candida albicans, GC3066, read-out: MINIMAL INHIBITORY CONCENTRATION MIC) was over 64 µg/mL. The “MINIMAL INHIBITORY CONCENTRATION MIC” value (c. albicans GC 3066; Human Serum) was over 64 UG/ML, the “MINIMAL INHIBITORY CONCENTRATION MIC” value (c. albicans GC 3066; Mouse Serum) was over 64 UG/ML and the MIC (P. aeruginosa GC 2214; GC2214, read-out: MINIMAL INHIBITORY CONCENTRATION MIC, Human Serum) was over 64 µg/mL. For the same compound, the MIC (P. aeruginosa GC 2214; GC2214, read-out: MINIMAL INHIBITORY CONCENTRATION MIC, Mouse Serum) was 32 µg/mL (≈ 41.6 µM), the MIC (P. aeruginosa GC 2214; GC2214, read-out: MINIMAL INHIBITORY CONCENTRATION MIC, Water) was over 64 µg/mL and the MIC (E. coli GC 2236; GC2236, read-out: MINIMAL INHIBITORY CONCENTRATION MIC, Human Serum) was 8 µg/mL (≈ 10.4 µM). For the same compound, the MIC (E. coli GC 2236; GC2236, read-out: MINIMAL INHIBITORY CONCENTRATION MIC, Mouse Serum) was 1 µg/mL (≈ 1.3 µM), the MIC (E. coli GC 2236; GC2236, read-out: MINIMAL INHIBITORY CONCENTRATION MIC, Water) was 32 µg/mL (≈ 41.6 µM) and the MIC (E. faecalis GC 2242; GC2242, read-out: MINIMAL INHIBITORY CONCENTRATION MIC, Human Serum) was 1 µg/mL (≈ 1.3 µM). It also gave an MIC (E. faecalis GC 2242; GC2242, read-out: MINIMAL INHIBITORY CONCENTRATION MIC, Mouse Serum) of 1 µg/mL (≈ 1.3 µM), an MIC (E. faecalis GC 2242; GC2242, read-out: MINIMAL INHIBITORY CONCENTRATION MIC, Water) of 2 µg/mL (≈ 2.6 µM) and an MIC (E. coli GC 2272; GC2272, read-out: MINIMAL INHIBITORY CONCENTRATION MIC, Human Serum) of 4 µg/mL (≈ 5.2 µM). For the same compound, the MIC (E. coli GC 2272; GC2272, read-out: MINIMAL INHIBITORY CONCENTRATION MIC, Mouse Serum) was 1 µg/mL (≈ 1.3 µM), the MIC (E. coli GC 2272; GC2272, read-out: MINIMAL INHIBITORY CONCENTRATION MIC, Water) was 32 µg/mL (≈ 41.6 µM) and the ED50 (Staph. aureus Smith; Staphylococcus aureus, in Mus musculus, iv, read-out: ED50 SIV (Staph aureus Smith)) was 1.65 mg/kg. It also gave an ED50 (Staph. aureus Smith; Staphylococcus aureus, in Mus musculus, po, read-out: ED50 SOD (Staph aureus Smith)) of 16.9 mg/kg, an ED50 (Staph. aureus Smith; Staphylococcus aureus, in Mus musculus, po, read-out: ED50 Staph Smith SOD) of 16.9 mg/kg and an ED50 (Staph. aureus Smith; iv, read-out: ED50 Staph Smith SIV) of 1.65 mg/kg. For the same compound, the MIC (E. faecalis GC 4555; GC4555, read-out: MINIMAL INHIBITORY CONCENTRATION MIC, Human Serum) was 2 µg/mL (≈ 2.6 µM), the MIC (E. faecalis GC 4555; GC4555, read-out: MINIMAL INHIBITORY CONCENTRATION MIC, Mouse Serum) was 1 µg/mL (≈ 1.3 µM) and the MIC (E. faecalis GC 4555; GC4555, read-out: MINIMAL INHIBITORY CONCENTRATION MIC, Water) was 4 µg/mL (≈ 5.2 µM). For the same compound, the MIC (S. aureus GC 2216; GC2216, read-out: MINIMAL INHIBITORY CONCENTRATION MIC, Human Serum) was 0.5 µg/mL (≈ 0.649 µM), the MIC (S. aureus GC 2216; GC2216, read-out: MINIMAL INHIBITORY CONCENTRATION MIC, Mouse Serum) was 1 µg/mL (≈ 1.3 µM) and the MIC (S. aureus GC 2216; GC2216, read-out: MINIMAL INHIBITORY CONCENTRATION MIC, Water) was 2 µg/mL (≈ 2.6 µM).
